The values that follow come from patent US8759318B2, “Phosphoramidate derivatives of guanosine nucleoside compounds for treatment of viral infections” (Inhibitex, Inc., priority 2009, dated 2014).

Where two headings read alike, the source gives them in different places.

The nature of data set [1]: Protide stability in normal plasma, cynomolgous monkey. It is filed as in vitro ADME. The following applies: 37° C. The procedure: (§1) Selected nucleoside 5′-phosphoramidates were examined for stability in human, cynomolgous monkey, rat and mouse plasma at 37° C. at both 30 min and 90 min time points.
(§2) Protide Stability in Normal Plasma: Plasma samples were prepared for analysis as follows. 50 μl of each test sample were distributed a 96-well V-bottom plate. 200 μl of acetonitrile containing 10 ng/ml of an internal standard was added to each plasma sample. The precipitated samples were centrifuged at 2500 rpm, 4° C. for 20 minutes in a Sorvall RT6000S centrifuge (Thermo Scientific, Waltham Mass.) and 100 μl of supernatant from each sample was transferred into a 96 deep well plate followed by the addition of 100 μl H2O to each sample. Samples were covered, mixed well by vortexing and maintained at 2-8° C. before and during analysis. 15 μl of each test sample was analyzed for protide concentrations by liquid chromatography coupled to tandem mass spectrometry (LC-MS/MS). Liquid chromatography was performed with an Agilent 1100 Series HPLC system equipped with a Synergi 4 μm Polar-RP, 30×2.0 mm column (Phenomenex, Torrance, Calif.). The HPLC system was coupled to an API 4000 triple quadrupole mass spectrometer (Applied Biosystems, Framingham, Mass.). Mass spectrometry was performed in positive ion mode and data was analyzed using Analyst® v1.4.2 software (Applied Biosystems, Framingham, Mass.). Data was presented as the percentage of compound recovered as compared to the 0 time point control.

A short description of data set [2]: Protide stability in normal plasma, mouse. It counts as in vitro ADME. The note with it: 37° C. The procedure:
as §1, §2

Data set [3] is described as follows: Protide stability in normal plasma, human. It is filed as in vitro ADME. The note with it: 37° C. The procedure:
as §1, §2

The nature of data set [4]: Mouse PK: 2'-C-methylguanosine triphosphate levels in liver. The following applies: 2'-C-methylguanosine triphosphate in mouse liver, 50 mg/kg PO.
Data set [5] in a line: Protide stability in normal plasma, rat. It counts as in vitro ADME. The following applies: 37° C. The procedure: as §1, §2
The nature of the next data set: in vitro. The note with it: human.
For data set [6], the system named is HCV replicon (Genotype 1b). Kind of data set: Luciferase genotype 1b replicon potency assay. The note with it: Hepatitis C virus, GETYPE1B, read-out: IC50 μM, HCV genotype 1b luciferase replicon, Renilla luciferase reporter. (In general: In antiviral work, replicon cells carry a viral genome segment that copies itself.)
For data set [7] the following is noted: mouse, in vivo, po, 50 mg/kg; for Cmax / T1/2 / Tmax: female, ICR.
Data set [8] can be described thus: Cytotoxicity assay (CellTiter-Glo). The following applies: human, Huh7 HCV replicon cells (genotype 1b).

As for `C[C@H](NP(=O)(OC[C@H]1OC(n2cnc3c(=O)[nH]c(N)nc32)[C@](C)(O)[C@@H]1O)Oc1cccc2ccccc12)C(=O)OCC(C)(C)C` (stereo partly shown) [A, reference compound], the “% Compound Remaining Compared to %100 Acetonitrile Control” value in data set [1] (30 min) is 98.5%; in [1] (1.5 h), 102.4%; in [2] (30 min) it was 0%; in data set [2] (1.5 h) it was 0%; in data set [3] (30 min) it was 83.2%; in data set [3] (1.5 h), 80.8%. Further, the “% Compound Remaining Compared to %100 Acetonitrile Control” value in [5] (30 min) and in [5] (1.5 h) was 0% in each case. For the same compound, the AUC0-6 in data set [4] was 1584 ng·h/g.

As for `CC(C)[C@H](NP(=O)(OC[C@H]1OC(n2cnc3c(=O)[nH]c(N)nc32)[C@](C)(O)[C@@H]1O)Oc1cccc2ccccc12)C(=O)OCC(C)(C)C` (stereo partly shown) [B, reference compound], the “% Compound Remaining Compared to %100 Acetonitrile Control” value in data set [1] (30 min) is 84.5%; in [1] (1.5 h), 84.9%; in [2] (30 min), 68.3%; in [2] (1.5 h) it was 32.3%; in [3] (30 min), 74.7%; in data set [3] (1.5 h) it was 78.1%. Further, the “% Compound Remaining Compared to %100 Acetonitrile Control” value was determined as 66.7% in [5] (30 min) and 42.0% in data set [5] (1.5 h).

`COc1nc(N)nc2c1ncn2C1O[C@H](COP(=O)(N[C@H](C(=O)OCc2ccccc2)C(C)C)Oc2cccc3ccccc23)[C@@H](O)[C@@]1(C)O` (stereo partly shown) [Example 36]: the “% Compound Remaining Compared to %100 Acetonitrile Control” value in data set [1] (30 min) was determined as 93.7%; in data set [1] (1.5 h) it was 96%; in data set [2] (30 min), 0.4%; in data set [2] (1.5 h) it was 0%; in data set [3] (30 min), 70.3%; in data set [3] (1.5 h), 74.1%. In addition, the “% Compound Remaining Compared to %100 Acetonitrile Control” value in [5] (30 min) was 16.9%; in data set [5] (1.5 h), 1.4%. In the data set “in vitro”, this compound returned a CC50 of 34 µM. For the same compound, in [6], the IC50 (usually the concentration that inhibits the measured activity by half) is 0.09 µM. For the same compound, in [7], the Cmax (usually the maximum level reached in the sampled fluid or tissue) is 1209.7 ng/g. Also, in data set [7], the T1/2 amounted to 2.0 h. Also, the Tmax (in general, the time from dosing to the highest level) in data set [7] worked out at 4.0 h. Moreover, in data set [7], the AUC0-6 is 5055 ng·h/g. The compound also registered an AUC0-24 in data set [7] of 6356 ng·h/g.

In the data set “in vitro”, `COc1nc(N)nc2c1ncn2C1O[C@H](COP(=O)(N[C@H](C(=O)O[C@@H](C)c2ccccc2)C(C)C)Oc2cccc3ccccc23)[C@@H](O)[C@@]1(C)O` (stereo partly drawn) [Example 38, (2S)-((S)-1-phenylethyl) 2-((((2R,3R,4R)-5-(2-amino-6-methoxy-9H-purin-9-yl)-3,4-dihydroxy-4-methyltetrahydrofuran-2-yl)methoxy) (naphthalen-1-yloxy)phosphorylamino)-3-methylbutanoate] gave a CC50 of 29 µM. For the same compound, in [6], the IC50 worked out at 0.94 µM. Further, in data set [7], the Cmax worked out at 3130.0 ng/g, the T1/2 turned out to be 4.3 h, the Tmax was determined as 4.0 h and the AUC0-6 was found to be 14380 ng·h/g. In addition, the AUC0-24 in data set [7] was found to be 26837 ng·h/g.

Take `COc1nc(N)nc2c1ncn2C1O[C@H](COP(=O)(N[C@H](C(=O)OCC(C)(C)C)C(C)C)Oc2cccc3ccccc23)[C@@H](O)[C@@]1(C)O` (stereo partly drawn) [Example 42, (2S)-neopentyl 2-((((2R,3R,4R)-5-(2-amino-6-methoxy-9H-purin-9-yl)-3,4-dihydroxy-4-methyltetrahydrofuran-2-yl)methoxy)(naphthalen-1-yloxy)phosphorylamino)-3-methylbutanoate]: the “% Compound Remaining Compared to %100 Acetonitrile Control” value amounted to 87.0% in data set [1] (30 min); 82.5% in data set [1] (1.5 h); 66.5% in data set [2] (30 min); 45.5% in data set [2] (1.5 h); 88.5% in data set [3] (30 min); 82.5% in data set [3] (1.5 h). For the same compound, the “% Compound Remaining Compared to %100 Acetonitrile Control” value in data set [5] (30 min) is 50.0%; in [5] (1.5 h), 37.0%. Moreover, the CC50 in “in vitro” was determined as 30 µM. Moreover, in [6], the IC50 is 0.21 µM. Further, in data set [4], the AUC0-6 was 1540 ng·h/g.

With `COc1nc(N)nc2c1ncn2C1O[C@H](COP(=O)(N[C@H](C(=O)OC2CCOCC2)C(C)C)Oc2cccc3ccccc23)[C@@H](O)[C@@]1(C)O` (stereo partly drawn) [Example 47, (2S)-tetrahydro-2H-pyran-4-yl 2-((((2R,3R,4R)-5-(2-amino-6-methoxy-9H-purin-9-yl)-3,4-dihydroxy-4-methyltetrahydrofuran-2-yl)methoxy)(naphthalen-1-yloxy)phosphorylamino)-3-methylbutanoate], the “% Compound Remaining Compared to %100 Acetonitrile Control” value in [1] (30 min) turned out to be 112.5%; in data set [1] (1.5 h), 118.5%; in [2] (30 min), 74.3%; in data set [2] (1.5 h), 67.4%; in data set [3] (30 min), 105.1%; in data set [3] (1.5 h) it was 129.5%. Further, the “% Compound Remaining Compared to %100 Acetonitrile Control” value is reported as 71.3% in [5] (30 min) and 57.3% in data set [5] (1.5 h). Further, the CC50 in the data set “in vitro” is greater than 100 µM. Besides, the IC50 in data set [6] is 0.18 µM.

For `COc1nc(N)nc2c1ncn2C1O[C@H](COP(=O)(N[C@H](C(=O)OCC(C)(C)C)C(C)C)Oc2c(C)ccc3ccccc23)[C@@H](O)[C@@]1(C)O` (stereo partly shown) [Example 54], the “% Compound Remaining Compared to %100 Acetonitrile Control” value came to 119.3% in [1] (30 min); 124.2% in data set [1] (1.5 h); 60.7% in data set [2] (30 min); 45.7% in [2] (1.5 h); 80.4% in data set [3] (30 min); 93.5% in [3] (1.5 h). Moreover, the “% Compound Remaining Compared to %100 Acetonitrile Control” value in [5] (30 min) is 60.6%; in data set [5] (1.5 h), 58.4%. In the data set “in vitro”, this compound yielded a CC50 of 23 µM. In data set [6], the IC50 worked out at 1.5 µM.

The compound `CCOc1nc(N)nc2c1ncn2C1O[C@H](CO)[C@@H](O)[C@@]1(C)O` (stereo partly drawn) [Example 72, (3R,4R,5R)-2-(2-amino-6-ethoxy-9H-purin-9-yl)-5-(hydroxymethyl)-3-methyltetrahydrofuran-3,4-diol] had a CC50 at 72 h in data set [8] greater than 100 µM. For the same compound, in [6], the 50% inhibitory concentration (IC50) amounted to 11 µM.

With `CNc1nc(N)nc2c1ncn2C1O[C@H](CO)[C@@H](O)[C@@]1(C)O` (stereo partly drawn) [Example 80, (3R,4R,5R)-2-(2-amino-6-(methylamino)-9H-purin-9-yl)-5-(hydroxymethyl)-3-methyltetrahydrofuran-3,4-diol], in data set [8], the CC50 at 72 h is greater than 100 µM. Moreover, the IC50 in data set [6] was 13 µM.

As to `C[C@@]1(O)[C@H](O)[C@@H](CO)O[C@H]1n1cnc2c(NCc3ccccc3)nc(N)nc21` [Example 84, (3R,4R,5R)-2-(2-amino-6-(benzylamino)-9H-purin-9-yl)-5-(hydroxymethyl)-3-methyltetrahydrofuran-3,4-diol], in data set [8], the CC50 at 72 h was greater than 100 µM. In addition, the IC50 in data set [6] came to 27 µM.

For the compound `CSc1nc(N)nc2c1ncn2[C@@H]1O[C@H](CO)[C@@H](O)[C@@]1(C)O` [Example 88, (2R,3R,4R,5R)-2-(2-amino-6-(methylthio)-9H-purin-9-yl)-5-(hydroxymethyl)-3-methyltetrahydrofuran-3,4-diol], the CC50 at 72 h in [8] was found to be 150 µM. For the same compound, the IC50 in data set [6] was determined as 11 µM.

`COc1nc(NCc2ccc(F)cc2)nc2c1ncn2[C@@H]1O[C@H](CO)[C@@H](O)[C@@]1(C)O` [Example 92, (2R,3R,4R,5R)-2-(2-(4-fluorobenzylamino)-6-methoxy-9H-purin-9-yl)-5-(hydroxymethyl)-3-methyltetrahydrofuran-3,4-diol]: the CC50 at 72 h in [8] was greater than 100 µM. In data set [6], the IC50 was greater than 40 µM.

With `C[C@H](NP(=O)(OC[C@H]1OC(n2cnc3c(=O)[nH]c(N)nc32)[C@](C)(O)[C@@H]1O)Oc1cccc2ccccc12)C(=O)O[C@@H](C)c1ccccc1` (stereo partly shown) [G, reference compound], in data set [4], the AUC0-6 was 6977 ng·h/g.

Turning to `CC(C)[C@H](NP(=O)(OC[C@H]1OC(n2cnc3c(=O)[nH]c(N)nc32)[C@](C)(O)[C@@H]1O)Oc1cccc2ccccc12)C(=O)OCc1ccccc1` (stereo partly shown) [M, reference compound], the AUC0-6 in [4] is 1937 ng·h/g.
